Legend:
Assay type in all cases: in vivo
Lepeophtheirus salmonis = assay: Lesa assay: bioassay on salmon lice, 1 hour exposure in seawater; details: monitored until 96 hours post exposure, 8-10 °C
Method: The stock was then diluted in saltwater to the appropriate concentration.
Control formulations were also prepared comprising only solvent (acetone) and solubilizer (Kolliphor EL) in the same ratio as the test formulation. A salt water control was also used.
Bioassay experiments were then conducted on copepodites and pre-adult/adult salmon lice (Lepeophtheirus salmonis).
After 1 hour exposure, the lice were transferred to modified 6 well plates and washed twice in saltwater. The plates were then incubated and the numbers of dead and surviving lice were monitored until 96 hours post exposure. The experimental temperature was maintained at 8-10 °C.

[1] = test system: tilapia (Oreochromis niloticus); assay: Toxicity to fish, intraperitoneal injection
Method: . Tilapia of mean weight of 158 grams reared in freshwater at 29°C were distributed in three groups of 10 fish. Each group was injected with 0.05 ml of the relevant formulation, or PBS control.

sea lice (L. salmonis) = assay: Bath treatment of sea lice infested Atlantic salmon: count of attached female sea lice; details: 2ppm for 60 minutes by bath; 12°C seawater; counted three days after treatment
Method: Diafenthiuron was tested for use in treating fish parasites.
Atlantic salmon were acclimatized to 12°C seawater.
Three days after treatment the number of attached female sea lice was counted. The number of adult female sea lice was reduced by 56% in the treated group.

## CC(C)c1cc(Oc2ccccc2)cc(C(C)C)c1NC(=S)NC(C)(C)C [Diafenthiuron, 1-tert-butyl-3-(2,6-diisopropyl-4-phenoxyphenyl)thiourea]
Lepeophtheirus salmonis; Copepodites, 0.5 ppm
  % dead: 77%
  Dead/total: 10/13
Lepeophtheirus salmonis; Copepodites, 2.0 ppm
  % dead: 100%
  Dead/total: 20/20
Lepeophtheirus salmonis; Copepodites, 20 ppb
  % dead: 48%
  Dead/total: 11/23
Lepeophtheirus salmonis; Pre-adult/adult, 2.0 ppm
  % dead: 100%
  Dead/total: 5/5
[1]; 0.05 ml of 25 mg/ml in PEG400 (85%)/DMSO (15%), intraperitoneal injection, 5 days, same mortality in group without diafenthiuron
  % mortality: 10%
[1]; 0.05 ml of 25 mg/ml in PEG400 (85%)/DMSO (15%), intraperitoneal injection, freshwater 29°C, 10 fish
  No. of fish healthy after 5 days: 9/10
[1]; five days after treatment, 25 mg/ml in PEG400/DMSO, 0.05 ml intraperitoneal injection
  treated fish alive and healthy: 90%
Sea lice (L. salmonis)
  reduction of the number of adult female sea lice: 56%

Reference: patent EP3331365B1, “AGENT FOR FIGHTING FISH PARASITES” (Pharmaq AS, priority 2015, dated 2017)
